Like-named read-outs stand apart in the source and are kept apart here. Where a SMILES comes first, the peptide text is derived from it. Bridges are numbered along the chain shown (N, C = ends). [ ]: non-standard residue; d: D form. The star is where a group is joined. hPhe(3-Cl-4-CF3) = N[C@@H](CCc1ccc(C(F)(F)F)c(Cl)c1)C(=O)O; NPrPhe(4-CF3) = CCCN[C@@H](Cc1ccc(C(F)(F)F)cc1)C(=O)O; NEtPhe(4-Me) = CCN[C@@H](Cc1ccc(C)cc1)C(=O)O; NMeGly(cPent) = CN[C@H](C(=O)O)C1CCCC1; Pro(4,4-F2) = O=C(O)[C@@H]1CC(F)(F)CN1; NMeD = CN[C@@H](CC(=O)O)C(=O)O; NMeL = CN[C@@H](CC(C)C)C(=O)O; Morpholide = C1CN(*)CCO1; Ac5c = NC1(C(=O)O)CCCC1; NEtG = CCNCC(=O)O; Sar = CNCC(=O)O
What was measured:
[1] = molecular target: GDP-bound HRAS wild-type protein (Homo sapiens, UniProt P01112); assay: Binding to HRAS by surface plasmon resonance (SPR), Single Cycle Kinetics
[2] = molecular target: GDP-bound KRAS wild-type protein (Homo sapiens, UniProt P01116); assay: Binding to KRAS by surface plasmon resonance (SPR), Single Cycle Kinetics; details: GDP-bound KRAS wild-type protein, read-out: KRAS KD
[3] = molecular target: GDP-bound NRAS wild-type protein (Homo sapiens, UniProt P01111); assay: Binding to NRAS by surface plasmon resonance (SPR), Single Cycle Kinetics
[4] = SPR, GDP-bound HRAS wild-type protein vs GDP-bound KRAS wild-type protein
[5] = SPR Single Cycle Kinetics, 1:1 binding model
[6] = SPR, GDP-bound NRAS wild-type protein vs GDP-bound KRAS wild-type protein

Sequence of GDP-bound HRAS wild-type protein (P01112 whole entry): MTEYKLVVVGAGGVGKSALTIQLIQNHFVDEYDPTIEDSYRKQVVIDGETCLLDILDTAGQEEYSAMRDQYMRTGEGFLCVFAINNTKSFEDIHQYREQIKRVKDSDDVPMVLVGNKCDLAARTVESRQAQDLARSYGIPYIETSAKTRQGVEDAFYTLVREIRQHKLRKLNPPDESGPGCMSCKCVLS
Sequence of GDP-bound NRAS wild-type protein (P01111 whole entry): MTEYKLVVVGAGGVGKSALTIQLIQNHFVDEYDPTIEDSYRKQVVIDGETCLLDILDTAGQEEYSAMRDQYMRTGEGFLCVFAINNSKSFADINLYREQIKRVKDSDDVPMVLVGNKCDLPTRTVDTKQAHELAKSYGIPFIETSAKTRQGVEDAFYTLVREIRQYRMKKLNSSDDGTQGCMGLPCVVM
Sequence of GDP-bound KRAS wild-type protein (P01116 whole entry): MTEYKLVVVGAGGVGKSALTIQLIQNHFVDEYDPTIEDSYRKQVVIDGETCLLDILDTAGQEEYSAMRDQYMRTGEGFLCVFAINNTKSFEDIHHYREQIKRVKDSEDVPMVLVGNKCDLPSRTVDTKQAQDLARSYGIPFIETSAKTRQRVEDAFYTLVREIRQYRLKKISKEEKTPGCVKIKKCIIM

Compound | Kd [2, 5] [nM] | Kd ([2]; SPR, Single Cycle Kinetics) [nM] | HRAS/KRAS (ratio of KD value with respect to HRAS to KD value with respect to KRAS) [1, 4] | NRAS/KRAS (ratio of KD value with respect to NRAS to KD value with respect to KRAS) [3, 6] | HRAS/KRAS (ratio of KD value for HRAS to KD value for KRAS) [1, 4] | NRAS/KRAS (ratio of KD value for NRAS to KD value for KRAS) [3, 6] | HRAS/KRAS (ratio of KD value with respect to GDP-bound HRAS wild-type protein to KD value with respect to KRAS) ([1]; SPR KD ratio HRAS/KRAS, class symbols) | NRAS/KRAS (ratio of KD value with respect to GDP-bound NRAS wild-type protein to KD value with respect to KRAS) ([3]; SPR KD ratio NRAS/KRAS, class symbols)
CCCN1C(=O)CN(C)C(=O)CNC(=O)[C@H]([C@@H](C)CC)NC(=O)[C@H](CC(C)C)N(C)C(=O)C[C@@H](C(=O)N2CCOCC2)N(C)C(=O)[C@H](C2CCCC2)N(C)C(=O)C2(CCCC2)NC(=O)[C@@H]2CC(F)(F)CN2C(=O)[C@H](CCc2ccc(C(F)(F)F)c(Cl)c2)NC(=O)CN(C)C(=O)[C@@H]1Cc1ccc(C(F)(F)F)cc1 [PP0394] ([NMeL]IG[Sar][NPrPhe(4-CF3)][Sar][hPhe(3-Cl-4-CF3)][Pro(4,4-F2)][Ac5c][NMeGly(cPent)][NMeD]-Morpholide; lactam N-11) | 0.24 | – | – | – | C (A compound having a KD ratio of 0.1 or more and less than 3 is denoted as C) | C (A compound having a KD ratio of 0.1 or more and less than 3 is denoted as C) | – | –
CC[C@H](C)[C@@H]1NC(=O)[C@H](CC(C)C)N(C)C(=O)C[C@@H](C(=O)N2CCOCC2)N(C)C(=O)[C@H](C2CCCC2)N(C)C(=O)C2(CCCC2)NC(=O)[C@@H]2CCCN2C(=O)[C@H](CCc2ccc(C(F)(F)F)c(Cl)c2)NC(=O)CN(CC)C(=O)[C@H](Cc2ccc(C)cc2)N(CC)C(=O)CN(C)C(=O)CN(C)C1=O [PP0028] ([NMeL]I[Sar][Sar][NEtPhe(4-Me)][NEtG][hPhe(3-Cl-4-CF3)]P[Ac5c][NMeGly(cPent)][NMeD]-Morpholide; lactam N-11) | 2.4 | – | – | – | C (A compound having a KD ratio of 0.1 or more and less than 3 is denoted as C) | C (A compound having a KD ratio of 0.1 or more and less than 3 is denoted as C) | – | –

The next lines start with results.

Kd [2, 5] [nM] | Kd ([2]; SPR, Single Cycle Kinetics) [nM] | Compound | HRAS/KRAS (ratio of KD value with respect to HRAS to KD value with respect to KRAS) [1, 4] | NRAS/KRAS (ratio of KD value with respect to NRAS to KD value with respect to KRAS) [3, 6] | HRAS/KRAS (ratio of KD value for HRAS to KD value for KRAS) [1, 4] | NRAS/KRAS (ratio of KD value for NRAS to KD value for KRAS) [3, 6] | HRAS/KRAS (ratio of KD value with respect to GDP-bound HRAS wild-type protein to KD value with respect to KRAS) ([1]; SPR KD ratio HRAS/KRAS, class symbols) | NRAS/KRAS (ratio of KD value with respect to GDP-bound NRAS wild-type protein to KD value with respect to KRAS) ([3]; SPR KD ratio NRAS/KRAS, class symbols)
0.066 | – | CC[C@H](C)[C@@H]1NC(=O)[C@H](CC(C)C)N(C)C(=O)C[C@@H](C(=O)N2CCOCC2)N(C)C(=O)[C@H](C2CCCC2)N(C)C(=O)C2(CCCC2)NC(=O)[C@@H]2CC(=O)CN2C(=O)[C@H](CCc2cc(F)c(C(F)(F)F)c(F)c2)NC(=O)CN(C)C(=O)[C@H](Cc2ccc(C(F)(F)F)cc2)N2CCCC[C@@H](C2=O)N(C)C(=O)CN(C)C1=O [PP0555] | B (a compound having 3 or more and less than 10 is denoted as B) | B (a compound having 3 or more and less than 10 is denoted as B) | – | – | – | –
– | 0.058 | CCO[C@@H]1C[C@H]2C(=O)NC3(CCC3)C(=O)N(C)[C@@H](C3CCCC3)C(=O)N(C)[C@H](C(=O)N(C)C)CC(=O)N(C)[C@@H](CC)C(=O)N[C@@H]([C@@H](C)CC)C(=O)N(C)CC(=O)N(C)[C@H]3C[C@H]4C[C@H]4CN(C3=O)[C@@H](Cc3ccc(C(F)(F)F)cc3)C(=O)N(C)CC(=O)N[C@@H](CCc3cc(F)c(C(F)(F)F)c(F)c3)C(=O)N2C1 [PP0830] | – | – | C (A compound having a KD ratio of 0.1 or more and less than 3 is denoted as C) | C (A compound having a KD ratio of 0.1 or more and less than 3 is denoted as C) | – | –
4.5 | – | CCO[C@@H]1C[C@H]2C(=O)NC3(CCC3)C(=O)N(C)[C@@H](C3CCCC3)C(=O)N(C)[C@H](C(=O)N(C)C)CC(=O)N(C)[C@@H](CC3CCCC3)C(=O)N[C@@H]([C@@H](C)CC)C(=O)N(C)CC(=O)N(C)[C@H]3C/C=C\CCN(C3=O)[C@@H](Cc3ccc(C)cc3)C(=O)N(C)CC(=O)N[C@@H](CCc3cc(C)c(C(F)F)c(C)c3)C(=O)N2C1 [PP2675] | – | – | – | – | A (a compound having 10 or more and less than 20 is denoted as A) | A (a compound having 10 or more and less than 20 is denoted as A)

— US20240158446A1, “CYCLIC COMPOUND HAVING SELECTIVE INHIBITORY ACTION ON KRAS OVER HRAS AND NRAS” (CHUGAI SEIYAKU KABUSHIKI KAISHA, priority 2021, published 2024)
